Measured values as given in the NIST ThermoML archive (doi:10.1016/j.jct.2014.05.020).

Test: excess molar enthalpy (molar enthalpy of mixing); xn = mol fraction of the nth substance listed
Settings: Liquid, Flow calorimetry

CCO [ethanol] + O
excess molar enthalpy [kcal/mol]
Settings | 423.2 K | 523.2 K
5000 kPa, x2 = 0.1473 | 0.0939 | –
5000 kPa, x2 = 0.2673 | 0.159 | –
5000 kPa, x2 = 0.4508 | 0.215 | –
5000 kPa, x2 = 0.5845 | 0.218 | –
5000 kPa, x2 = 0.6864 | 0.196 | –
5000 kPa, x2 = 0.7665 | 0.164 | –
5000 kPa, x2 = 0.8312 | 0.128 | –
5000 kPa, x2 = 0.8845 | 0.0917 | –
5000 kPa, x2 = 0.9292 | 0.0569 | –
5000 kPa, x2 = 0.9673 | 0.0255 | –
15000 kPa, x2 = 0.1466 | 0.0918 | 0.188
15000 kPa, x2 = 0.2662 | 0.156 | 0.304
15000 kPa, x2 = 0.4493 | 0.215 | 0.401
15000 kPa, x2 = 0.5831 | 0.218 | 0.41
15000 kPa, x2 = 0.6851 | 0.197 | 0.373
15000 kPa, x2 = 0.7655 | 0.166 | 0.322
15000 kPa, x2 = 0.8304 | 0.13 | 0.261
15000 kPa, x2 = 0.8839 | 0.0937 | 0.198
15000 kPa, x2 = 0.9289 | 0.0584 | 0.131
15000 kPa, x2 = 0.9671 | 0.0263 | 0.0634
